pEC50: −log10 of the molar value.
What follows are compounds tested against T1, AHR (Mus musculus, UniProt P30561) (assay: P450 CYP1A1 Luciferase Assay, Hepa1.6 (agonist)). Conditions: Hepa1.6, Table 2.
T1 sequence (P30561 1-848 F348L/P471L): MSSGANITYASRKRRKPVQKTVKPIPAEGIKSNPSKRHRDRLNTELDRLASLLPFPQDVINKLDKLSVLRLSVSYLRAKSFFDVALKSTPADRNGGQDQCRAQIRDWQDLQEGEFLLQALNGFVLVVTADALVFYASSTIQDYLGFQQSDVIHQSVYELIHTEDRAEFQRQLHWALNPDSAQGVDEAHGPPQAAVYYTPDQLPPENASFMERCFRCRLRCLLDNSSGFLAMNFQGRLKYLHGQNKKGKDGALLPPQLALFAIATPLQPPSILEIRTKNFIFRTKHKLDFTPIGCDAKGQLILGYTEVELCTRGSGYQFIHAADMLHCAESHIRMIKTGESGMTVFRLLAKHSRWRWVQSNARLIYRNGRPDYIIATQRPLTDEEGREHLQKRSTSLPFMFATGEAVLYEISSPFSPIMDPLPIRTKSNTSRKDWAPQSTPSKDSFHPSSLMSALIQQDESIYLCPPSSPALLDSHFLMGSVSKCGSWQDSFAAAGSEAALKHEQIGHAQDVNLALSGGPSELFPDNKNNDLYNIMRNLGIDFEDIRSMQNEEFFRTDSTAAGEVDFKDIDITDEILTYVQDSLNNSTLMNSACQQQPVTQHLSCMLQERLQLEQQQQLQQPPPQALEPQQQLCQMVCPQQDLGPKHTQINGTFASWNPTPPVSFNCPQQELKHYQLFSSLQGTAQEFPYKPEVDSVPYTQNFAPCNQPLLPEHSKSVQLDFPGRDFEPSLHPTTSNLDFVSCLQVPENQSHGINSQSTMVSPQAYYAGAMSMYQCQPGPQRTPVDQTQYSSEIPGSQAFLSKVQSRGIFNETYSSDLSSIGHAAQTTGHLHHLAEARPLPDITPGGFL
Type: cell-based, murine
Method: P450 CYP1A1 Luciferase Assay
AHR binds to Dioxin Responsive Elements (DRE) upstream of genes that it activates. One measure of AHR activity is P450 CYP1A1 protein levels determined by measuring CYP1A1 enzyme activity using a luminogenic CYP1A1 luciferin-based substrate. Luciferase activity will reflect CYP1A1 activity resulting from activation of AHR in the cells.
Murine Hepa1-6 or Hepa-1c1c7 or other murine cell line, human HepG2 or other human cell line are plated in media (96-well, 384-well or other plates) and incubated overnight at 37 C in a CO2 incubator.
(§1) The next day, an AHR agonist compound is added. Cells are incubated for 6, 16 or 24 hours or another time point and then lysed and incubated with a CYP1A1 luciferase-based substrate (e.g. Luciferin-CEE) for 3, 6, or 12 hours of another time point. Determination of luciferase activity as a read-out of CYP1A1 enzyme activity can be measured with a commercial kit such as the Promega P450 Glo CYP1A1 detection reagent or any kit or reagents that provide for measuring luciferase activity. The level of luciferase with only activating ligand (e.g. such as TCDD, kynurenine, ITE (2-(1H-indole-3-ylcarbonyl)-4-thiazolecarboxylic methyl ester), VAF347, BNF (beta-naphthoflavone), ICZ (6-formylindolo(3,2-b) carbazole or other AHR ligands) added is the maximum signal while the luciferase with no ligand is the minimum signal. EC50s can be determined as the concentration which activates half of the maximum luciferase activity.

Row | pEC50 | SMILES
1 | < 6.00 | FC(F)(F)c1cccc(Nc2nc(-c3cccc(Cl)c3)cs2)n1 [I-6]
2 | 6.00 to 7.00 | O=[N+]([O-])c1cncc(-c2csc(Nc3cccc(C(F)(F)F)c3)n2)c1 [I-7]
3 | < 6.00 | C[N+](C)(C)CCNC(=O)N(c1cccc(C(F)(F)F)c1)c1nc(-c2cccc(Cl)c2)cs1 [I-8]
4 | 7.00 to 8.00 | [O-][n+]1cccc(-c2csc(Nc3cccc(C(F)(F)F)c3)n2)c1 [I-9]
5 | 6.00 to 7.00 | Cc1ccc(-c2csc(Nc3cccc(C(F)(F)F)c3)n2)cc1[N+](=O)[O-] [I-11]
6 | < 6.00 | FC(F)(F)c1cccc(Nc2nc(-c3ccc(Cl)c(Cl)c3)cs2)c1 [I-12]
7 | < 6.00 | FC(F)(F)Oc1cccc(Nc2nc(-c3cccc(Cl)c3)cs2)c1 [I-13]
8 | 7.00 to 8.00 | N#Cc1cccc(-c2csc(Nc3cccc(C(F)(F)F)c3)n2)c1 [I-14]
9 | < 6.00 | Cc1c(-c2csc(Nc3cccc(C(F)(F)F)c3)n2)cccc1[N+](=O)[O-] [I-15]
10 | 6.00 to 7.00 | C[N+](C)(CO)CCNC(=O)N(c1cccc(C(F)(F)F)c1)c1nc(-c2cccc(C#N)c2)cs1 [I-16]
11 | 6.00 to 7.00 | NC(=O)c1cncc(-c2csc(Nc3cccc(C(F)(F)F)c3)n2)c1 [I-17]
12 | < 6.00 | Oc1cccc(-c2csc(Nc3cccc(C(F)(F)F)c3)n2)c1 [I-18]
13 | < 6.00 | FC(F)(F)c1cccc(Nc2nc(-c3ccccc3Cl)cs2)c1 [I-19]
14 | < 6.00 | C[N+]1(CCNC(=O)N(c2cccc(C(F)(F)F)c2)c2nc(-c3cccc(Cl)c3)cs2)CCC(O)CC1 (stereo not shown) [I-20]
15 | < 6.00 | FC(F)(F)c1ccc(Nc2nc(-c3cccc(Cl)c3)cs2)cc1 [I-21]
16 | 6.00 to 7.00 | NC(=O)c1cccc(-c2csc(Nc3cccc(C(F)(F)F)c3)n2)c1 [I-22]
17 | < 6.00 | FC(F)(F)c1cccc(Nc2nc(-c3ccc4cc[nH]c4c3)cs2)c1 [I-23]
18 | < 6.00 | C[N+](C)(C)CCCNC(=O)N(c1cccc(C(F)(F)F)c1)c1nc(-c2cccc(Cl)c2)cs1 [I-24]
19 | < 6.00 | N#Cc1cccc(Nc2nc(-c3cccc(Cl)c3)cs2)c1 [I-25]
20 | < 6.00 | C[N+](C)(CCO)CCCNC(=O)N(c1cccc(C(F)(F)F)c1)c1nc(-c2cccc(Cl)c2)cs1 [I-26]

What follows are compounds tested against T2, AHR (Homo sapiens, UniProt P35869) (assay: DRE-Luciferase Reporter Assay, HepG2 (agonist)). Conditions: HepG2, Table 2; read-out: DRE-Luc HepG2 - Agonist: Average EC50.
T2 construct: endogenous in cells; host or cells: HepG2 (human), transfected with a DRE-luciferase reporter only
T2 sequence (P35869 11-848): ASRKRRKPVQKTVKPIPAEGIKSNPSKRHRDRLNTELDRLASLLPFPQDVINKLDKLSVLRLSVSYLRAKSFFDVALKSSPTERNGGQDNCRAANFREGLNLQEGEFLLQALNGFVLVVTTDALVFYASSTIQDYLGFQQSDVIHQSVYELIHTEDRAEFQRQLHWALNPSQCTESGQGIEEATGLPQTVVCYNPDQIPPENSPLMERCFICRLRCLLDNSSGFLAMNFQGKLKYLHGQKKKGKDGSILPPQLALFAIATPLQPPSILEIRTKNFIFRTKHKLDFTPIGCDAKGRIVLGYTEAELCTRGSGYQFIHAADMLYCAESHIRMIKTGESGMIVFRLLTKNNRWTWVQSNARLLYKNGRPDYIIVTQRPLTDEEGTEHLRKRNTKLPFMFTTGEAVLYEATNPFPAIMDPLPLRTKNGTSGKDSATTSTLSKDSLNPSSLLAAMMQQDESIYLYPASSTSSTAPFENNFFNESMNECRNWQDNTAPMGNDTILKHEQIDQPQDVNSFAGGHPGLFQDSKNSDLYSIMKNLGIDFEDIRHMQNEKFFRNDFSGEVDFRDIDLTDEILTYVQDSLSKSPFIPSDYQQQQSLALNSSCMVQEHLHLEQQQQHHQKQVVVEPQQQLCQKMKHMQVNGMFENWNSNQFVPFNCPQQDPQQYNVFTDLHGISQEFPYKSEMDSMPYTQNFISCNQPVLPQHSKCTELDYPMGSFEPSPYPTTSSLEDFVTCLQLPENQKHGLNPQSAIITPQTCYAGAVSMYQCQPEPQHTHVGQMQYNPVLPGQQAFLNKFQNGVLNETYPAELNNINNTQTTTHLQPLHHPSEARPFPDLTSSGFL
Type: cell-based
Method: DRE-Luciferase Reporter Assay
AHR binds to Dioxin Responsive Elements (DRE) upstream of genes that it activates. One measure of AHR activity is activation of a reporter gene, such as luciferase, downstream of one or multiple DRE elements. Luciferase activity reflects activation and inhibition of AHR in the cells expressing this reporter.
Murine Hepa1-6 or Hepa-1c1c7 or other murine cell line with a DRE-luciferase reporter either stably or transiently transfected are plated in media in plates (96-well, 384-well or other plates) and incubated overnight at 37 C in a CO2 incubator. Likewise, human HepG2 or other human cell line with a DRE-luciferase reporter either stably or transiently transfected are plated in media in plates (96-well, 384-well or other plates) and incubated overnight at 37 C in a CO2 incubator.
as §1, with “lysed” for “lysed and incubated with a CYP1A1 luciferase-based substrate (e.g. Luciferin-CEE)”, “determination” for “3, 6, or 12 hours of another time point. Determination”, “the AHR activation. Luciferase” for “CYP1A1 enzyme activity”, “Luciferase kit” for “P450 Glo CYP1A1 detection reagent”, “provide the luciferin substrate” for “provide”

Row | pEC50 | SMILES
21 | > 8.00 | FC(F)(F)c1cccc(Nc2nc(-c3cccc(Cl)c3)cs2)n1 [I-6]
22 | > 8.00 | O=[N+]([O-])c1cncc(-c2csc(Nc3cccc(C(F)(F)F)c3)n2)c1 [I-7]
23 | > 8.00 | C[N+](C)(C)CCNC(=O)N(c1cccc(C(F)(F)F)c1)c1nc(-c2cccc(Cl)c2)cs1 [I-8]
24 | > 8.00 | [O-][n+]1cccc(-c2csc(Nc3cccc(C(F)(F)F)c3)n2)c1 [I-9]
25 | > 8.00 | Cc1ccc(-c2csc(Nc3cccc(C(F)(F)F)c3)n2)cc1[N+](=O)[O-] [I-11]
26 | > 8.00 | FC(F)(F)c1cccc(Nc2nc(-c3ccc(Cl)c(Cl)c3)cs2)c1 [I-12]
27 | > 8.00 | FC(F)(F)Oc1cccc(Nc2nc(-c3cccc(Cl)c3)cs2)c1 [I-13]
28 | > 8.00 | N#Cc1cccc(-c2csc(Nc3cccc(C(F)(F)F)c3)n2)c1 [I-14]
29 | > 8.00 | Cc1c(-c2csc(Nc3cccc(C(F)(F)F)c3)n2)cccc1[N+](=O)[O-] [I-15]
30 | > 8.00 | C[N+](C)(CO)CCNC(=O)N(c1cccc(C(F)(F)F)c1)c1nc(-c2cccc(C#N)c2)cs1 [I-16]
31 | > 8.00 | NC(=O)c1cncc(-c2csc(Nc3cccc(C(F)(F)F)c3)n2)c1 [I-17]
32 | > 8.00 | Oc1cccc(-c2csc(Nc3cccc(C(F)(F)F)c3)n2)c1 [I-18]
33 | > 8.00 | FC(F)(F)c1cccc(Nc2nc(-c3ccccc3Cl)cs2)c1 [I-19]
34 | > 8.00 | C[N+]1(CCNC(=O)N(c2cccc(C(F)(F)F)c2)c2nc(-c3cccc(Cl)c3)cs2)CCC(O)CC1 (stereo not shown) [I-20]
35 | > 8.00 | FC(F)(F)c1ccc(Nc2nc(-c3cccc(Cl)c3)cs2)cc1 [I-21]
36 | > 8.00 | NC(=O)c1cccc(-c2csc(Nc3cccc(C(F)(F)F)c3)n2)c1 [I-22]
37 | > 8.00 | FC(F)(F)c1cccc(Nc2nc(-c3ccc4cc[nH]c4c3)cs2)c1 [I-23]
38 | 7.00 to 8.00 | C[N+](C)(C)CCCNC(=O)N(c1cccc(C(F)(F)F)c1)c1nc(-c2cccc(Cl)c2)cs1 [I-24]
39 | 7.00 to 8.00 | N#Cc1cccc(Nc2nc(-c3cccc(Cl)c3)cs2)c1 [I-25]
40 | 7.00 to 8.00 | C[N+](C)(CCO)CCCNC(=O)N(c1cccc(C(F)(F)F)c1)c1nc(-c2cccc(Cl)c2)cs1 [I-26]
